In patent US12377194B2, “JAB1 inhibitory compositions for ossification and methods related thereto” (Emory University, priority 2011, dated 2025):

Columns and labels:
Harlan athymic rats = assay: Collagen disc implantation with Jab1-blockers and BMP-2 in rat ectopic model; type: in vivo; design: Average (Xray score): scale not given here; conditions: 100 ul, chest implant, 4 weeks
Description: Harlan athymic rats about 5-6 weeks of age were chest implanted with a collagen disc and doses of G8 and R13 in combination with BMP-2. After 4 weeks the rats were sacrificed and evaluated for bone growth.

Mouse C2C12 cells = assay: Alkaline phosphatase (ALP) assay, cell based screen of JAB1 blockers with BMP-2; conditions: cell based assay (FIG. 1-4)
Experimental: Mouse C2C12 cells and Dulbecco's modified Eagle's medium (DMEM) were purchased from ATCC (Manassas, VA). The non-heat inactivated fetal bovine serum (FBS) was purchased from HyClone Laboratories, Inc. (Logan, UT). The C2C12 cells at passages 4 to 7 were subcultured in T-75 cm2 flasks in DMEM supplemented with 10% FBS at 37° C. in 5% CO2 with humidification. When the flasks reached 80% confluence, the cells were trypsinized and seeded in triplicate at 200,000 cells/well in a 6-well plate for quantitative real-time RT-PCR and alkaline phosphatase (ALP) assays or at 50,000 cells/well in a 12-well plate for the dual-luciferase reporter assay.
The C2C12 cells were plated at 200,000 cells/well in 6-well plates and grown overnight in DMEM containing 10% FBS. On day 2, the culture medium was replaced with DMEM containing 2% FBS and the cells were treated with various concentrations of the JAB1-interacting compound for 24 hours. On day 3, the medium was replaced with fresh DMEM containing 2% FBS and the cells were treated with 50 ng/ml of BMP-2 for 72 hours. The cells were washed with phosphate-buffered saline (PBS) and lysed by addition of lysis buffer (10 mM Tris-HCl pH 8.0, 1 mM MgCl2 and 0.5% Triton X-100). The cell lysates were centrifuged for 5 minutes at 13,000×g. The supernatant was removed and the aliquots were assayed for ALP activity and protein amount. The ALP activity was measured in triplicate using an ALP assay kit (Sigma-Aldrich, St. Louis, MO) in microtiter plates. The protein amount was determined with Bio-Rad protein assay reagent (Bio-Rad, Hercules, CA) using bovine serum albumin (BSA) as a standard. The ALP activity (nmoles of p-nitrophenol per ml) was normalized to the protein amount (nmoles of p-nitrophenol per μg).

[1] = compound dose 2 mM + BMP-2 1.5 ug
[2] = compound dose 4 mM + BMP-2 1.5 ug
[3] = compound dose 6 mM + BMP-2 1.5 ug
[4] = compound dose 8 mM + BMP-2 1.5 ug
[5] = compound dose 11 mM + BMP-2 1.5 ug
[6] = compound dose 15 mM + BMP-2 1.5 ug
[7] = compound dose 19 mM + BMP-2 1.5 ug

COc1cc2nccc(Oc3ccc(Br)c(C)c3)c2cc1OC [#SRJ-G8, 4-(4-bromo-3-methylphenoxy)-6,7-dimethoxyquinoline]
Average (Xray score) (Harlan athymic rats; [1]): 3.5 | Results (bone made, n of 4) (Harlan athymic rats; [1]): Bone made (4 of 4) | Average (Xray score) (Harlan athymic rats; [2]): 3.75 | Results (bone made, n of 4) (Harlan athymic rats; [2]): Bone made (4 of 4) | Average (Xray score) (Harlan athymic rats; [3]): 3 | Results (bone made, n of 4) (Harlan athymic rats; [3]): Bone made (3 of 4) | Average (Xray score) (Harlan athymic rats; [4]): 4 | Results (bone made, n of 4) (Harlan athymic rats; [4]): Bone made (4 of 4) | Average (Xray score) (Harlan athymic rats; [5]): 1.25 | Results (bone made, n of 4) (Harlan athymic rats; [5]): Bone made (1 of 4) | Average (Xray score) (Harlan athymic rats; [6]): 1.75 | Results (bone made, n of 4) (Harlan athymic rats; [6]): Bone made (2 of 4) | Average (Xray score) (Harlan athymic rats; [7]): 0.75 | Results (bone made, n of 4) (Harlan athymic rats; [7]): Bone made (1 of 4) | ALP activity (Mouse C2C12 cells): improving ALP activity

COc1cc(Nc2nccc(Nc3ccc(F)cc3)n2)cc(OC)c1 [P5, N^2-(3,5-dimethoxyphenyl)-N^4-(4-fluorophenyl)pyrimidine-2,4-diamine]
ALP activity (Mouse C2C12 cells): improving ALP activity

COc1cc(OC)c(C=C2C(=O)Nc3cc(Cl)ccc32)c(OC)c1 [#SRJ-R13, 6-chloro-3-(2,4,6-trimethoxybenzylidene)indolin-2-one]
Average (Xray score) (Harlan athymic rats; [1]): 1.75 | Results (bone made, n of 4) (Harlan athymic rats; [1]): Bone made (3 of 4) | Average (Xray score) (Harlan athymic rats; [2]): 2.25 | Results (bone made, n of 4) (Harlan athymic rats; [2]): Bone made (4 of 4) | Results (bone made, n of 4) (Harlan athymic rats; [3]): No bone (0 of 4) | Results (bone made, n of 4) (Harlan athymic rats; [4]): No bone (0 of 4) | Results (bone made, n of 4) (Harlan athymic rats; [5]): No bone (0 of 4) | Results (bone made, n of 4) (Harlan athymic rats; [6]): No bone (0 of 4) | Results (bone made, n of 4) (Harlan athymic rats; [7]): No bone (0 of 4) | ALP activity (Mouse C2C12 cells): improving ALP activity
